In BindingDB's records for patent US10487086 (Bristol Myers Squibb, 2019) one finds Ki data, which are given here for one compound.

The target in the experiment is Coagulation factor XI (Homo sapiens, UniProt P03951). In words: Factor XIa assay. On the procedure:
The effectiveness of compounds of the present invention as inhibitors of the coagulation Factors XIa, VIIa, IXa, Xa, XIIa, plasma kallikrein or thrombin, can be determined using a relevant purified serine protease, respectively, and an appropriate synthetic substrate. The rate of hydrolysis of the chromogenic or fluorogenic substrate by the relevant serine protease was measured both in the absence and presence of compounds of the present invention. […] A decrease in the rate of absorbance or fluorescence change in the presence of inhibitor is indicative of enzyme inhibition. Such methods are known to one skilled in the art. […] Determinations were made using purified human Factor XIa at a final concentration of 25-200 pM (Haematologic Technologies) and the synthetic substrate S-2366 (pyroGlu-Pro-Arg-pNA; CHROMOGENIX or AnaSpec) at a concentration of 0.0002-0.001 M.

Sequence of Coagulation factor XI (P03951 19-387 limits assumed): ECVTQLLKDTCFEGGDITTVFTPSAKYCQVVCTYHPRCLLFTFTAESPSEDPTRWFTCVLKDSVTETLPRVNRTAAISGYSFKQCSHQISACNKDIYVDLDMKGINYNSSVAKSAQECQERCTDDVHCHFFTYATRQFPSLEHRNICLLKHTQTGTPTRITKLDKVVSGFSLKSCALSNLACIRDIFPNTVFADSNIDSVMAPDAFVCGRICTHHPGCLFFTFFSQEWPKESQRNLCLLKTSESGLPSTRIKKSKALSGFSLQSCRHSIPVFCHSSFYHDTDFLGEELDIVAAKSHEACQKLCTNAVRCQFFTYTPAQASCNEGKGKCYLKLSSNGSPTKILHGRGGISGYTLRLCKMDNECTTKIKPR
Sequence of Coagulation factor XI (P03951 388-625 limits assumed): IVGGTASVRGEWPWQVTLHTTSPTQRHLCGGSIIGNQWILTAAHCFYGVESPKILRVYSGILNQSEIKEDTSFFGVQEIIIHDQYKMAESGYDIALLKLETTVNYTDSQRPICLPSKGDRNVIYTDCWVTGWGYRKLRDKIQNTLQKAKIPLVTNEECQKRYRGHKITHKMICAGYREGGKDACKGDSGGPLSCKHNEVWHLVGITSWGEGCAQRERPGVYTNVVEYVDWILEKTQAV

For orientation: Ki means the equilibrium dissociation constant of an inhibitor or competing ligand from its target. A lower Ki goes with higher affinity. Take `COC(=O)Nc1ccc2c(c1)N[C@@H](C(=O)O)CCCC[C@H](NC(=O)/C=C/c1cc(Cl)ccc1-n1cnnn1)c1nc-2c[nH]1` [US10487086, Example I-84]: the Ki is 580 nM.
